Measurements published in patent US9381200B2, “Nitrogen containing compounds” (WOCKHARDT LIMITED, priority 2011, dated 2016).
In brackets after ≈: the same amount, converted by molar mass. Read-outs that look alike come from different tables or passages of the source.

What was measured:
Type in all cases: cell-based
[1] = system: E. coli NCTC 13351; assay: Antibacterial activity (MIC), agar dilution per CLSI; settings: Escherichia coli, NCTC13351, Table 3, E. coli NCTC 13351 expressing ESBL, 16-20 hours, 35±2° C., read-out: MIC
Outline: (§1)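 Agar dilution MIC per CLSI: overnight cultures diluted and inoculated onto agar containing doubling dilutions of compound. Growth/no growth read after 16-20 h at 35±2° C in ambient air. Strains express ESBL.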

[2] = system: E. coli 7 MP; assay: as above; settings: Escherichia coli, Table 3, E. coli 7 MP expressing ESBL, read-out: MIC
Outline: as §1

[3] = system: K penumoniae H 525; assay: Antibacterial activity (MIC) against MDR Gram negative strains; settings: Table 4; K penumoniae H 525, KPC ESBL, MDR; read-out: MIC
Procedure: (§2) The biological activity of representative compounds according to the invention against various bacterial strains was investigated. In a typical study, overnight grown bacterial cultures were diluted appropriately and inoculated on the agar media containing doubling dilutions of the test compounds. Observation for growth or no growth was performed after 16-20 hours of incubation at 35±2° C. in ambient air. The overall procedure was performed as per Clinical and Laboratory Standards Institute (CLSI) recommendations (Clinical and Laboratory Standards Institute (CLSI), Performance Standards for Antimicrobial Susceptibility Testing, 20th Informational Supplement, M 100-S20, Volume 30, No. 1, 2010).
(§3) The activities are expressed as MICs (mcg/ml).

[4] = system: E. Coli H 484; assay: as above; settings: Escherichia coli; Table 4; E. Coli H 484, Class C ESBL, MDR; read-out: MIC
Procedure: as §2, §3

[5] = system: E. Coli B 89; assay: as above; settings: Escherichia coli; Table 4; E. Coli B 89, Class C ESBL, MDR; read-out: MIC
Procedure: as §2, §3

[6] = system: P. aeruginosa ATCC 27853; assay: as above; settings: Pseudomonas aeruginosa, ATCC27853; Table 5; P. aeruginosa ATCC 27853; read-out: MIC
Procedure: as §2, §3

[7] = system: K penumoniae H 523; assay: as above; settings: Table 4; K penumoniae H 523, KPC ESBL, MDR; read-out: MIC
Procedure: as §2, §3

[8] = system: E. Coli W 13353; assay: as above; settings: Escherichia coli; Table 4; E. Coli W 13353, Class A ESBL, MDR; read-out: MIC
Procedure: as §2, §3

[9] = system: E. Coli M 3; assay: as above; settings: Escherichia coli; Table 5; E. Coli M 3, Class B ESBL, MDR; read-out: MIC
Procedure: as §2, §3

[10] = system: E. Coli M 44; assay: as above; settings: Escherichia coli; Table 5; E. Coli M 44, Class B ESBL, MDR; read-out: MIC
Procedure: as §2, §3

[11] = system: E. Coli W 13352; assay: as above; settings: Escherichia coli; Table 4; E. Coli W 13352, Class A ESBL, MDR; read-out: MIC
Procedure: as §2, §3

[12] = system: K penumoniae H 521; assay: as above; settings: Table 4; K penumoniae H 521, KPC ESBL, MDR; read-out: MIC
Procedure: as §2, §3

[13] = system: E. Coli W 13351; assay: as above; settings: Escherichia coli; Table 4; E. Coli W 13351, Class A ESBL, MDR; read-out: MIC
Procedure: as §2, §3

[14] = system: P. aeruginosa Ps 32; assay: as above; settings: Pseudomonas aeruginosa, PS32; Table 5; P. aeruginosa Ps 32; read-out: MIC
Procedure: as §2, §3

[15] = system: P. aeruginosa Ps 21; assay: as above; settings: Pseudomonas aeruginosa, PS21; Table 5; P. aeruginosa Ps 21; read-out: MIC
Procedure: as §2, §3

[16] = system: K. penumoniae S 48; assay: as above; settings: Table 5; K. penumoniae S 48, Class B ESBL, MDR; read-out: MIC
Procedure: as §2, §3

[17] = system: E. coli M 50; assay: Antibacterial activity (MIC), agar dilution per CLSI; settings: Escherichia coli, read-out: MIC
Outline: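 Agar dilution, CLSI method: diluted overnight culture spotted on agar with 2-fold compound series; 16-20 h, 35±2° C., ambient air; read growth/no growth; MIC in mcg/ml.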

[18] = system: A. baumannii G-165; assay: Antibacterial activity of sulbactam / Cefepime combinations with a compound of the invention (MIC); settings: Acinetobacter baumannii
Procedure: as §2

[19] = system: A. baumannii J-143; assay: as above; settings: Acinetobacter baumannii
Procedure: as §2

[20] = system: A. baumannii 1460648; assay: as above
Procedure: as §2

[21] = system: A. baumannii S-334; assay: as above; settings: Acinetobacter baumannii
Procedure: as §2

[22] = M50, Table 3, E. coli M 50 expressing ESBL, agar dilution
[23] = M50, Table 4, E. Coli M 50, Class C ESBL, MDR

SMILES	MIC [1]	MIC [2]	MIC [3]	MIC [4]	MIC [5]	MIC [6]	MIC [7]	MIC [8]	MIC [9]	MIC [10]	MIC [11]	MIC [12]	MIC [13]	MIC [14]	MIC [15]	MIC [16]	MIC [17, 22]	MIC [17, 23]	further results
NCCCC(=O)NNC(=O)[C@H]1CC[C@@H]2CN1C(=O)N2OS(=O)(=O)O (relative stereo) [Example 9, trans-sulfuric acid mono-[2-(N′-(4-amino-butanoyl)-hydrazinocarbonyl)-7-oxo-1,6-diaza-bicyclo[3.2.1]oct-6-yl]ester]	1 µg/mL (≈ 2.74 µM)	4 µg/mL (≈ 10.9 µM)	0.5 µg/mL (≈ 1.37 µM)	2 µg/mL (≈ 5.47 µM)	1 µg/mL (≈ 2.74 µM)	8 µg/mL (≈ 21.9 µM)	0.5 µg/mL (≈ 1.37 µM)	1 µg/mL (≈ 2.74 µM)	2 µg/mL (≈ 5.47 µM)	0.5 µg/mL (≈ 1.37 µM)	1 µg/mL (≈ 2.74 µM)	1 µg/mL (≈ 2.74 µM)	1 µg/mL (≈ 2.74 µM)	16 µg/mL (≈ 43.8 µM)	8 µg/mL (≈ 21.9 µM)	1 µg/mL (≈ 2.74 µM)	2 µg/mL (≈ 5.47 µM)	1 µg/mL (≈ 2.74 µM)	–
O=C(CN1CCNCC1)NNC(=O)[C@H]1CC[C@@H]2CN1C(=O)N2OS(=O)(=O)O (relative stereo) [Example 19, trans-sulfuric acid mono-[2-(N′-(piperazin-4-yl-acetyl)-hydrazinocarbonyl)-7-oxo-1,6-diaza-bicyclo[3.2.1]oct-6-yl]ester]	1 µg/mL (≈ 2.46 µM)	2 µg/mL (≈ 4.92 µM)	1 µg/mL (≈ 2.46 µM)	4 µg/mL (≈ 9.84 µM)	1 µg/mL (≈ 2.46 µM)	32 µg/mL (≈ 78.7 µM)	1 µg/mL (≈ 2.46 µM)	2 µg/mL (≈ 4.92 µM)	1 µg/mL (≈ 2.46 µM)	1 µg/mL (≈ 2.46 µM)	2 µg/mL (≈ 4.92 µM)	1 µg/mL (≈ 2.46 µM)	2 µg/mL (≈ 4.92 µM)	> 32 µg/mL	> 32 µg/mL	4 µg/mL (≈ 9.84 µM)	1 µg/mL (≈ 2.46 µM)	2 µg/mL (≈ 4.92 µM)	–
CO/N=C(\C(=O)N[C@@H]1C(=O)N2C(C(=O)[O-])=C(C[N+]3(C)CCCC3)CS[C@H]12)c1csc(N)n1 [Cefepime]	–	–	–	–	–	–	–	–	–	–	–	–	–	–	–	–	–	–	MIC ([18]; G165, Table 8, A. baumannii G-165, Cefepime alone or with sulbactam and/or compound at fixed concentrations as named in the composition, read-out: MIC of Cefepime): > 32 µg/mL; MIC ([19]; J143, Table 8, A. baumannii J-143, Cefepime alone or with sulbactam and/or compound at fixed concentrations as named in the composition, read-out: MIC of Cefepime): > 32 µg/mL; MIC ([20]; Acinetobacter baumannii, Table 8, A. baumannii 1460648, Cefepime alone or with sulbactam and/or compound at fixed concentrations as named in the composition, read-out: MIC of Cefepime): > 32 µg/mL; MIC ([21]; S334, Table 8, A. baumannii S-334, Cefepime alone or with sulbactam and/or compound at fixed concentrations as named in the composition, read-out: MIC of Cefepime): 32 µg/mL
O=C(NNC(=O)[C@@H]1CC[C@@H]2CN1C(=O)N2OS(=O)(=O)O)[C@@H]1CCCN1 [Example 1, trans-sulfuric acid mono-[2-(N′—[(S)-pyrrolidin-2-carbonyl]-hydrazinocarbonyl)-7-oxo-1,6-diaza-bicyclo[3.2.1]oct-6-yl]ester]	0.025 µg/mL (≈ 0.0662 µM)	0.25 µg/mL (≈ 0.662 µM)	0.5 µg/mL (≈ 1.32 µM)	2 µg/mL (≈ 5.3 µM)	0.5 µg/mL (≈ 1.32 µM)	16 µg/mL (≈ 42.4 µM)	0.5 µg/mL (≈ 1.32 µM)	0.25 µg/mL (≈ 0.662 µM)	1 µg/mL (≈ 2.65 µM)	0.25 µg/mL (≈ 0.662 µM)	0.5 µg/mL (≈ 1.32 µM)	0.5 µg/mL (≈ 1.32 µM)	0.5 µg/mL (≈ 1.32 µM)	32 µg/mL (≈ 84.8 µM)	16 µg/mL (≈ 42.4 µM)	2 µg/mL (≈ 5.3 µM)	0.25 µg/mL (≈ 0.662 µM)	0.5 µg/mL (≈ 1.32 µM)	–
N#CCC(=O)NNC(=O)[C@@H]1CC[C@@H]2CN1C(=O)N2OS(=O)(=O)[O-].[Na+] [Example 43, Sodium salt of trans-sulfuric acid mono-[2-(N′-(cyano-acetyl)-hydrazinocarbonyl)-7-oxo-1,6-diaza-bicyclo[3.2.1]oct-6-yl]ester]	1 µg/mL	8 µg/mL	1 µg/mL	8 µg/mL	1 µg/mL	> 32 µg/mL	1 µg/mL	1 µg/mL	4 µg/mL	0.5 µg/mL	1 µg/mL	2 µg/mL	1 µg/mL	> 32 µg/mL	> 32 µg/mL	1 µg/mL	2 µg/mL	1 µg/mL	–
CC1(C)[C@H](C(=O)O)N2C(=O)C[C@H]2S1(=O)=O [Sulbactam, sulbactam]	–	–	–	–	–	–	–	–	–	–	–	–	–	–	–	–	–	–	MIC ([18]; G165, read-out: MIC of sulbactam): 32 µg/mL; MIC ([18]; G165, read-out: Standalone MIC): 32 µg/mL; MIC ([19]; J143, read-out: MIC of sulbactam): 32 µg/mL; MIC ([19]; J143, read-out: Standalone MIC): 32 µg/mL; MIC ([20]; Acinetobacter baumannii, 1460648, read-out: MIC of sulbactam): 32 µg/mL; MIC ([20]; Acinetobacter baumannii, 1460648, read-out: Standalone MIC): 32 µg/mL; MIC ([21]; S334, read-out: MIC of sulbactam): 32 µg/mL; MIC ([21]; S334, read-out: Standalone MIC): 32 µg/mL

More lines, in order of falling MIC [1], values ahead:

MIC [1]	MIC [2]	MIC [3]	MIC [4]	MIC [5]	MIC [6]	MIC [7]	MIC [8]	MIC [9]	MIC [10]	MIC [11]	MIC [12]	MIC [13]	MIC [14]	MIC [15]	MIC [16]	MIC [17, 22]	MIC [17, 23]	SMILES	further results
1 µg/mL (≈ 2.85 µM)	2 µg/mL (≈ 5.69 µM)	1 µg/mL (≈ 2.85 µM)	2 µg/mL (≈ 5.69 µM)	1 µg/mL (≈ 2.85 µM)	8 µg/mL (≈ 22.8 µM)	0.5 µg/mL (≈ 1.42 µM)	1 µg/mL (≈ 2.85 µM)	4 µg/mL (≈ 11.4 µM)	0.5 µg/mL (≈ 1.42 µM)	1 µg/mL (≈ 2.85 µM)	1 µg/mL (≈ 2.85 µM)	1 µg/mL (≈ 2.85 µM)	8 µg/mL (≈ 22.8 µM)	16 µg/mL (≈ 45.5 µM)	1 µg/mL (≈ 2.85 µM)	1 µg/mL (≈ 2.85 µM)	1 µg/mL (≈ 2.85 µM)	NCCC(=O)NNC(=O)[C@H]1CC[C@@H]2CN1C(=O)N2OS(=O)(=O)O (relative stereo) [Example 8, trans-sulfuric acid mono-[2-(N′-(3-amino-propioyl)-hydrazinocarbonyl)-7-oxo-1,6-diaza-bicyclo[3.2.1]oct-6-yl]ester]	–
1 µg/mL (≈ 2.55 µM)	2 µg/mL (≈ 5.11 µM)	1 µg/mL (≈ 2.55 µM)	4 µg/mL (≈ 10.2 µM)	1 µg/mL (≈ 2.55 µM)	32 µg/mL (≈ 81.8 µM)	0.5 µg/mL (≈ 1.28 µM)	1 µg/mL (≈ 2.55 µM)	1 µg/mL (≈ 2.55 µM)	1 µg/mL (≈ 2.55 µM)	2 µg/mL (≈ 5.11 µM)	1 µg/mL (≈ 2.55 µM)	1 µg/mL (≈ 2.55 µM)	16 µg/mL (≈ 40.9 µM)	32 µg/mL (≈ 81.8 µM)	1 µg/mL (≈ 2.55 µM)	1 µg/mL (≈ 2.55 µM)	1 µg/mL (≈ 2.55 µM)	O=C(NNC(=O)[C@H]1CC[C@@H]2CN1C(=O)N2OS(=O)(=O)O)C1CCNCC1 (relative stereo) [Example 13, trans-sulfuric acid mono-[2-(N′-(piperidin-4-carbonyl)-hydrazinocarbonyl)-7-oxo-1,6-diaza-bicyclo[3.2.1]oct-6-yl]ester]	–
0.25 µg/mL (≈ 0.617 µM)	0.5 µg/mL (≈ 1.23 µM)	2 µg/mL (≈ 4.93 µM)	1 µg/mL (≈ 2.47 µM)	0.5 µg/mL (≈ 1.23 µM)	> 32 µg/mL	1 µg/mL (≈ 2.47 µM)	0.5 µg/mL (≈ 1.23 µM)	1 µg/mL (≈ 2.47 µM)	0.5 µg/mL (≈ 1.23 µM)	0.5 µg/mL (≈ 1.23 µM)	1 µg/mL (≈ 2.47 µM)	0.25 µg/mL (≈ 0.617 µM)	> 32 µg/mL	> 32 µg/mL	2 µg/mL (≈ 4.93 µM)	0.25 µg/mL (≈ 0.617 µM)	1 µg/mL (≈ 2.47 µM)	O=C(NNC(=O)[C@@H]1CC[C@@H]2CN1C(=O)N2OC(F)(F)C(=O)O)[C@@H]1CCCNC1 [Example 5, trans-difluoro-{7-oxo-2-[N′—((R)-piperidin-3-carbonyl)-hydrazinocarbonyl]-1,6-diaza-bicyclo[3.2.1]-oct-6-yloxy}-acetic acid]	–
